Literature values as cited in US20170341994A1, “PLANT GROWTH REGULATOR AND A METHOD OF USING THE SAME” (GLUCAN BIOLOGICAL TECHNOLOGY CO., LTD, priority 2016, published 2017).

Tested on: tumor
Settings: some studies

β-glucan
inhibition of tumor growth: more than 95%
